According to PubChem BioAssay (NCI):
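Interpolation was linear, between the two tested concentrations surrounding the appropriate level; five concentrations were tested over 48 hours in 96-well plates. TGI marks complete inhibition of growth.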

Legend:
Experiment in all cases: NCI tumour cell line growth inhibition, 48 h
[1] = test system: UACC-62 melanoma
[2] = test system: SK-MEL-2 melanoma
[3] = test system: PC-3 prostate
[4] = test system: SW-620 colon
[5] = test system: HCT-15 colon
[6] = test system: COLO 205 colon
[7] = test system: MDA-N
[8] = test system: OVCAR-3 ovarian
[9] = test system: CCRF-CEM leukemia
[10] = test system: DLD-1 colon
[11] = test system: NCI/ADR-RES ovarian
[12] = test system: M14 melanoma
[13] = test system: BT-549 breast
[14] = test system: K-562 leukemia
[15] = test system: SK-OV-3 ovarian
[16] = test system: A549 NSCLC
[17] = test system: LXFL 529 NSCLC
[18] = test system: 786-0 renal
[19] = test system: SR leukemia
[20] = test system: NCI-H226 lung
[21] = test system: LOX IMVI melanoma
[22] = test system: A498 renal
[23] = test system: HT29 colon
[24] = test system: DU-145 prostate
[25] = test system: CAKI-1 renal
[26] = test system: OVCAR-4 ovarian
[27] = test system: MDA-MB-435
[28] = test system: SK-MEL-5 melanoma
[29] = test system: UACC-257 melanoma
[30] = test system: HL-60(TB) leukemia
[31] = test system: MDA-MB-231 breast
[32] = test system: IGROV1 ovarian
[33] = test system: U251 CNS
[34] = test system: SF-539 CNS
[35] = test system: MOLT-4 leukemia
[36] = test system: M19-MEL melanoma
[37] = test system: SN12C renal
[38] = test system: HOP-92 NSCLC
[39] = test system: OVCAR-5 ovarian
[40] = test system: KM20L2 colon
[41] = test system: SNB-19 CNS
[42] = test system: NCI-H460 lung
[43] = test system: MCF7 breast
[44] = test system: NCI-H522 lung
[45] = test system: RPMI-8226 leukemia
[46] = test system: SK-MEL-28 melanoma
[47] = test system: RXF 393 renal
[48] = test system: EKVX NSCLC
[49] = test system: HCT-116 colon
[50] = test system: KM12 colon
[51] = test system: SF-295 CNS
[52] = test system: DMS 114 small cell lung
[53] = test system: XF 498 CNS
[54] = test system: ACHN renal
[55] = test system: OVCAR-8 ovarian
[56] = test system: T-47D breast
[57] = test system: SF-268 CNS
[58] = test system: HCC-2998 colon
[59] = test system: TK-10 renal
[60] = test system: SN12K1 renal
[61] = test system: DMS 273 small cell lung
[62] = test system: SNB-78 CNS
[63] = test system: HOP-18 NSCLC
[64] = test system: HOP-62 NSCLC
[65] = test system: SNB-75 CNS
[66] = test system: P388 leukemia
[67] = test system: P388/ADR leukemia
[68] = test system: UO-31 renal
[69] = test system: MALME-3M melanoma
[70] = test system: NCI-H23 lung

COc1ccc(/C=C2/C(=O)N(C(=O)c3ccccc3O)N=C2C)cc1
TGI [1]: > 100 µM | TGI [2]: > 100 µM | TGI [3]: > 100 µM | TGI [4]: > 100 µM | TGI [5]: 1.24 µM | TGI [6]: > 89.2 µM | TGI [7]: > 100 µM | TGI [8]: > 30.4 µM | TGI [9]: > 100 µM | TGI [10]: > 100 µM | TGI [11]: 14.1 µM | TGI [12]: > 100 µM | TGI [13]: 98.1 µM | TGI [14]: > 100 µM | TGI [15]: > 100 µM | TGI [16]: > 100 µM | TGI [17]: > 100 µM | TGI [18]: > 100 µM | TGI [19]: > 100 µM | TGI [20]: 32.3 µM | TGI [21]: > 46.6 µM | TGI [22]: 0.0747 µM | TGI [23]: > 100 µM | TGI [24]: > 100 µM | TGI [25]: 51 µM | TGI [26]: > 100 µM | TGI [27]: > 100 µM | TGI [28]: 9.56 µM | TGI [29]: > 100 µM | TGI [30]: 9.87 µM | TGI [31]: > 100 µM | TGI [32]: 0.0784 µM | TGI [33]: > 100 µM | TGI [34]: 2.2 µM | TGI [35]: > 100 µM | TGI [36]: > 100 µM | TGI [37]: > 32 µM | TGI [38]: > 100 µM | TGI [39]: > 100 µM | TGI [40]: > 100 µM | TGI [41]: > 100 µM | TGI [42]: > 100 µM | TGI [43]: > 100 µM | TGI [44]: 8.51 µM | TGI [45]: > 100 µM | TGI [46]: > 100 µM | TGI [47]: 1.23 µM | TGI [48]: > 100 µM | TGI [49]: > 100 µM | TGI [50]: > 100 µM | TGI [51]: > 100 µM | TGI [52]: 2.25 µM | TGI [53]: > 100 µM | TGI [54]: > 100 µM | TGI [55]: > 41.1 µM | TGI [56]: > 100 µM | TGI [57]: > 100 µM | TGI [58]: > 100 µM | TGI [59]: > 100 µM

c1ccc2c(c1)NCc1cc3ccccc3nc1O2
TGI [1]: > 100 µM | TGI [2]: > 100 µM | TGI [4]: > 100 µM | TGI [5]: > 100 µM | TGI [6]: > 100 µM | TGI [8]: > 100 µM | TGI [9]: > 100 µM | TGI [10]: > 100 µM | TGI [60]: > 100 µM | TGI [11]: > 100 µM | TGI [14]: > 100 µM | TGI [15]: > 100 µM | TGI [16]: > 100 µM | TGI [20]: > 100 µM | TGI [21]: > 100 µM | TGI [22]: > 100 µM | TGI [23]: > 100 µM | TGI [25]: > 100 µM | TGI [26]: > 100 µM | TGI [28]: > 100 µM | TGI [29]: > 100 µM | TGI [30]: > 100 µM | TGI [32]: > 100 µM | TGI [33]: > 100 µM | TGI [34]: > 100 µM | TGI [35]: > 100 µM | TGI [36]: > 100 µM | TGI [37]: > 100 µM | TGI [61]: > 100 µM | TGI [38]: > 100 µM | TGI [39]: > 100 µM | TGI [62]: > 100 µM | TGI [41]: > 100 µM | TGI [42]: > 100 µM | TGI [43]: > 100 µM | TGI [44]: > 100 µM | TGI [63]: > 100 µM | TGI [64]: > 100 µM | TGI [65]: > 100 µM | TGI [45]: > 100 µM | TGI [46]: > 100 µM | TGI [47]: > 100 µM | TGI [66]: > 100 µM | TGI [48]: > 100 µM | TGI [67]: > 100 µM | TGI [49]: > 100 µM | TGI [50]: > 100 µM | TGI [51]: > 100 µM | TGI [68]: > 31.6 µM | TGI [52]: > 100 µM | TGI [53]: > 100 µM | TGI [69]: > 100 µM | TGI [55]: > 100 µM | TGI [57]: > 100 µM | TGI [70]: > 100 µM | TGI [58]: > 100 µM
